# In patent publication US10167507B2, “Metabolic diseases-related odorant receptor genes and use thereof” (INDUSTRY-ACADEMIC COOPERATION FOUNDATION, YONSEI UNIVERSITY, priority 2010, dated 2019):
# How the values were obtained:
# [1] = test system: obesity and metabolic diseases-related genes in visceral fat tissue; experiment: RT-PCR of obesity and metabolic diseases-related genes, visceral fat tissue; format: in vivo, mouse; details: odor component-supplemented group to the HFD control group
# Procedure: (§1) After adding 1 mL of Trizol agent (Invitrogen, USA) per 0.1 g of visceral fat or liver tissues, the mixture was homogenized and centrifuged at 12,000×g for 10 min at 4° C. The supernatant was transferred to a new tube and 200 μl of chloroform was added to the tube, followed by vortexing. The same procedure was repeated twice and then the supernatant was transferred to a new tube, followed by addition of isopropanol and the supernatant at 1:1 ratio. The mixture was vigorously shaken 10 times and then incubated for 10 min at room temperature, followed by centrifugation at 12,000×g for 10 min at 4° C. to remove the supernatant. After adding 1 mL of 70% ethanol to the remaining pellet, it was centrifuged at 7,500×g for 5 min at 4° C. After removing the ethanol, the RNA pellet contained in the tube was dried for 5 min at 4° C. and dissolved in nuclease-free water. The RNA sample concentration was measured at a wavelength of 260 nm and 280 nm using a UV/VIS spectrophotometer (Beckman coulter, DU730) and the integrity of RNA sample was verified by agarose gel electrophoresis. The RNA sample obtained from the visceral fat or liver tissues was trasnscribed using oligo dT primer and reverse transcriptase (GIBCO BRL, Gaithersburg, Md., USA) to synthesize cDNA. The PCR amplification was performed using the cDNA as templates and primers complementary to cDNA [NT] flanking sequence. 1 μl of the amplified products were resolved on agarose gel electrophoresis to verify DNA band.
# [2] = test system: olfactory receptors in visceral fat and liver tissues; experiment: OligoDNA microarray, visceral fat and liver tissues of HFD mice fed odor components (tissue not separated in text); format: in vivo; details: supplemented to mouse fed high-fat diet for 10 weeks
# Source text: (§2) The obesity-inducing control diet used in the test was high-fat diet (HFD: 40% fat calorie, 17 g lard+3% corn oil/100 g diet). Diets supplemented with an odor component had the same composition as HFD, except that each of various types of odor components (indol-3-carbinol, oleuropein, cedryl acetate, α-cedrene and piperine) having anti-obesity efficacy was contained in 0.02-0.05% concentration. Indo)-3-carbinol, oleuropein, cedryl acetate, a-cedrene and piperine were purchased from Sigma-Aldrich.
# (§3) After adding Trizol agent to visceral fat or liver tissue, the mixture was homogenized and centrifuged at 12,000×g for 10 min at 4° C. The supernatant was transferred to a new tube to remove fat layer. Then, 200 μl of chloroform was added to the tube, followed by vortexing. The same procedure was repeated twice and then the supernatant was transferred to a new tube, followed by addition of isopropanol and the supernatant at 1:1 ratio. The mixture was vigorously shaken 10 times and then incubated for 10 min at room temperature, followed by centrifugation at 12,000×g for 10 min at 4° C. to remove the supernatant. After adding 1 mL of 70% ethanol to the remaining pellet, it was centrifuged at 7,500×g for 5 min at 4° C. After removing the ethanol, the RNA pellet contained in the tube was dried for 5 min at 4° C. and dissolved in nuclease-free water. The RNA sample concentration was measured at a wavelength of 260 nm and 280 nm using a UV/VIS spectrophotometer (Beckman coulter, DU730) and the integrity of RNA sample was verified by agarose gel electrophoresis.
# (§4) DNA microarry analysis using RNAs of visceral fat and liver tissue was conducted by GENOCHECK (CO., LTD.). RNA samples were pooled from 10 mice in each experimental group and subjected to microarray experiments in triplicate for the test of reproducibility. NimbleGen Mouse Whole Oligo 12-plex chip used in this experiment was prepared by triplicating 42,576 genes using Mouse Genome Build 8 as database. In NimbleGen mouse Whole Oligo 12-plex chip, 137,090 spots excluded control group gene were spotted by 16 μm×16 μm size in 17.4 mm×13 mm size. 42,576 oligo included […] genes which are known their functions and 5,431 transcripts and EST sequences which are unknown their functions. 10-50 μg of total RNA was added in oligo-dT primer, reverse transcriptase, dNTP, Cy3-dUTP and Cy5-dUTP, and reverse-transcripted according to the kit manufacturer's recommendations. The resultant was purified using cartridge, dried and dissolved in hybridization buffer solution (30 μL). The microarray was placed in hybridization cassette, heated at 95-100° C. for 5 min, mixed independently to each of RNA labeled with Cy3 and Cy5, and hybridized at 45° C. for 18 hrs. The slide was washed twice in solution containing 1×SSC and 0.1% SDS for 5 min, washed in 1×SSC for 5 min and dried to analyze.
# (§5) The profile for olfactory receptors in which the expression was regulated by more than 2-fold change due to intake of odor components at each tissue was shown in Tables 5. As a result, it was determined that various types of odor components having anti-obesity efficacy regulated a plurality of olfactory receptors in peripheral tissues.
# [3] = test system: olfactory receptors in visceral fat tissue; experiment: OligoDNA microarray, visceral fat tissue of HFD mice fed odor components; format: in vivo, mouse; details: supplemented to HFD-fed mouse 10 weeks
# Procedure: DNA microarry analysis using RNAs of visceral fat and liver tissue was conducted by GENOCHECK (CO., LTD.). RNA samples were pooled from 10 mice in each experimental group and subjected to microarray experiments in triplicate for the test of reproducibility. NimbleGen Mouse Whole Oligo 12-plex chip used in this experiment was prepared by triplicating 42,576 genes using Mouse Genome Build 8 as database. In NimbleGen mouse Whole Oligo 12-plex chip, 137,090 spots excluded control group gene were spotted by 16 μm×16 μm size in 17.4 mm×13 mm size. 42,576 oligo included 137,145 genes which are known their functions and 5,431 transcripts and EST sequences which are unknown their functions. 10-50 μg of total RNA was added in oligo-dT primer, reverse transcriptase, dNTP, Cy3-dUTP and Cy5-dUTP, and reverse-transcripted according to the kit manufacturer's recommendations. The resultant was purified using cartridge, dried and dissolved in hybridization buffer solution (30 μL). The microarray was placed in hybridization cassette, heated at 95-100° C. for 5 min, mixed independently to each of RNA labeled with Cy3 and Cy5, and hybridized at 45° C. for 18 hrs. The slide was washed twice in solution containing 1×SSC and 0.1% SDS for 5 min, washed in 1×SSC for 5 min and dried to analyze.
# [4] = test system: HSL (hormone sensitive lipase); experiment: Western blotting, protein phosphorylation of HSL; format: in vivo, mouse; details: odor component-supplemented group to the HFD control group
# Procedure: (§6) A certain amount of visceral fat or liver tissues in mortar was homogenized with liquid nitrogen and cell lysis buffer. The mixture was transferred to a new tube, followed by vortexing. After centrifugation at 13,000×g for 20 min at 4° C., the middle layer of the tube was obtained and proteins were quantified by Bradford method. 50 μg of protein was electrophorized to SDS polyacrylamide gel, followed by electroblotting to PVDF hyper film. The protein was reacted using an appropriate antibody for the protein and detected by ECL, whereby insulin resistance, adipocyte differentiation, lipid metabolism or energy consumption-related mechanism of phytochemical components was investigated in the protein level.
# (§7) In order to verify this, protein phosphorylations of HSL (hormone sensitive lipase), CREB (cAMP-responsive element binding protein) and AKT (v-akt murine thymoma viral oncogene) were evaluated by western blotting analysis.
# [5] = test system: CREB (cAMP-responsive element binding protein); experiment: Western blotting, protein phosphorylation of CREB; format: in vivo, mouse; details: odor component-supplemented group to the HFD control group
# Procedure: as §6, §7
# [6] = test system: olfactory receptors in liver tissue; experiment: OligoDNA microarray, liver tissue of HFD mice fed odor components; format: in vivo, mouse; details: supplemented to HFD-fed mouse 10 weeks
# Source text: as §2, §3, §4, §5
# [7] = test system: AKT (v-akt murine thymoma viral oncogene); experiment: Western blotting, protein phosphorylation of AKT; format: in vivo, mouse; details: odor component-supplemented group to the HFD control group
# Procedure: as §6, §7
# [8] = test system: obesity and metabolic diseases-related genes in liver tissue; experiment: RT-PCR of obesity and metabolic diseases-related genes, liver tissue; format: in vivo, mouse; details: odor component-supplemented group to the HFD control group
# Procedure: as §1
smiles,measurement,setting,value
C/C=C1/[C@H](O[C@@H]2O[C@H](CO)[C@@H](O)[C@H](O)[C@H]2O)OC=C(C(=O)OC)[C@H]1CC(=O)OCCc1ccc(O)c(O)c1 [oleuropein],"C/EBPα gene expression, decrease (change rate)",[1],22% decrease
same,"CPT1 gene expression, increase (change rate)",[1],50% increase^
same,"FAS gene expression, decrease (change rate)",[1],65 decrease %
same,"IL-6 gene expression, decrease (change rate)",[1],78% decrease
same,"PGC1α gene expression, increase (change rate)",[1],210% increase ^
same,"PPARγ2 gene expression, decrease (change rate)",[1],35% decrease
same,"SIRT1 gene expression, increase (change rate)",[1],98% increase^
same,"TNFα gene expression, decrease (change rate)",[1],66% decrease
same,"UCP1 gene expression, increase (change rate)",[1],450% increase ^
same,"UCP3 gene expression, increase (change rate)",[1],82% increase^
same,"aP2 gene expression, decrease (change rate)",[1],26% decrease
same,expression of olfactory receptor 38 increased,[2],more than 2 fold change
same,expression of olfactory receptor 275 increased,[2],more than 2 fold change
same,expression of olfactory receptor 290 increased,[2],more than 2 fold change
same,expression of olfactory receptor 341 decreased,[2],more than 2 fold change
same,expression of olfactory receptor 495 decreased,[2],more than 2 fold change
same,expression of olfactory receptor 520 increased,[2],more than 2 fold change
same,expression of olfactory receptor 907 decreased,[2],more than 2 fold change
same,expression of olfactory receptor 971 increased,[2],more than 2 fold change
same,expression of olfactory receptor 1046 increased,[2],more than 2 fold change
same,expression of olfactory receptor 1104 increased,[2],more than 2 fold change
same,expression of olfactory receptor 1136 decreased,[2],more than 2 fold change
same,expression of olfactory receptor 1204 increased,[2],more than 2 fold change
same,expression of olfactory receptor 1214 increased,[2],more than 2 fold change
same,expression of olfactory receptor 1317 increased,[2],more than 2 fold change
same,expression of olfactory receptor 1447 increased,[2],more than 2 fold change
same,Olfr290 expression fold change to HFD group,[3],2.32
same,Olfr341 expression fold change to HFD group,[3],0.3
same,Olfr495 expression fold change to HFD group,[3],0.21
same,Olfr520 expression fold change to HFD group,[3],2.08
same,Olfr907 expression fold change to HFD group,[3],0.49
same,Olfr971 expression fold change to HFD group,[3],2.37
same,Olfr1046 expression fold change to HFD group,[3],2.01
same,Olfr1104 expression fold change to HFD group,[3],4.39
same,Olfr1447 expression fold change to HFD group,[3],2.33
same,Olfr341 expression fold change to HFD group,[3]; listed as Oleuropein,0.30
same,"HSL phosphorylation, increase (change rate)",[4],52% increase
same,"CREB phosphorylation, increase (change rate)",[5],60% increase
same,Olfr38 expression fold change to HFD group,[6],2.35
same,Olfr275 expression fold change to HFD group,[6],2.49
same,Olfr1136 expression fold change to HFD group,[6],0.49
same,Olfr1204 expression fold change to HFD group,[6],2.21
same,Olfr1214 expression fold change to HFD group,[6],2.17
same,Olfr1317 expression fold change to HFD group,[6],2.89
same,"AKT phosphorylation, increase (change rate)",[7],59% increase
same,"C/EBPα gene expression, decrease (change rate)",[8],16% decrease
same,"CPT1 gene expression, increase (change rate)",[8],33% increase^
same,"FAS gene expression, decrease (change rate)",[8],40% decrease
same,"IL-6 gene expression, decrease (change rate)",[8],62% decrease
same,"PPARγ2 gene expression, decrease (change rate)",[8],94% decrease
same,"TNFα gene expression, decrease (change rate)",[8],60% decrease
same,"aP2 gene expression, decrease (change rate)",[8],29% decrease
